Consider twelve molecules from patent US20110245242A1, “Heterocyclically Substituted Anilinopyrimides” (Bayer CropScience AG, priority 2008, published 2011).

A short description of data set [1]: log P by LC-MS, method [b], acid range pH 2.7. The format is physicochemical. The note with it: pH 2.7. The method, then:
The log P values were measured in accordance with EEC Directive 79/831 Annex V.A8 by HPLC (High Performance Liquid Chromatography) on reversed-phase columns (C 18) using the methods below:
[b] The LC-MS determination in the acid range was carried out at pH 2.7 using the mobile phases 0.1% aqueous formic acid and acetonitrile (contains 0.1% formic acid)
linear gradient from 10% acetonitrile to 95% acetonitrile.

A short description of data set [2]: physchem. The format is physicochemical. The note with it: pH 7.8. As to the method:
The log P values were measured in accordance with EEC Directive 79/831 Annex V.A8 by HPLC (High Performance Liquid Chromatography) on reversed-phase columns (C 18) using the methods below: [c] The LC-MS determination in the neutral range was carried out at pH 7.8 using the mobile phases 0.001 molar aqueous ammonium bicarbonate solution and acetonitrile linear gradient from 10% acetonitrile to 95% acetonitrile.

Data set [3] deals with Sphaerotheca fuliginea. Description: Sphaerotheca test (cucumber)/protective. The note with it: Podosphaera fuliginea, 168 h, active compound concentration of 500 ppm, protective, evaluation 7 days after the inoculation, read-out: efficacy. The format is in vivo.
The nature of data set [4]: log P by HPLC on reversed-phase columns (C 18), method [a], acidic range pH 2.3. The format is physicochemical. As to the method:
The log P values were measured in accordance with EEC Directive 79/831 Annex V.A8 by HPLC (High Performance Liquid Chromatography) on reversed-phase columns (C 18) using the methods below: [a] The determination was carried out in the acidic range at pH 2.3 using the mobile phases 0.1% aqueous phosphoric acid and acetronitrile linear gradient from 10% acetonitrile to 95% acetronitrile.

The format of data set [5] is physicochemical. As to the method:
The log P values were measured in accordance with EEC Directive 79/831 Annex V.A8 by HPLC (High Performance Liquid Chromatography) on reversed-phase columns (C 18) using the methods below: […]

Data set [6] concerns Fusarium proliferatum. Description: Production of Fumonisin FB1 by Fusarium proliferatum (microtitre plates; FB1 by HPLC-MS/MS, growth by OD620). The note with it: for IC50: Fusarium proliferatum, 144 h. The format is cell-based.
For data set [7], the system named is Fusarium graminearum. Description: microbe, parasite or virus in culture. The format is cell-based. The following applies: 168 h, read-out: activity in the inhibition of DON/AcDON.
Data set [8] has as its system Phakopsora pachyrhizi. Description: Phakopsora test (soya beans)/protective. The format is in vivo. The note with it: active compound concentration of 250 ppm, protective, evaluation 1 day after the inoculation.
Data set [9] in a line: physchem. The format is physicochemical. The following applies: pH 7.
Setting [10] is: FB1 concentration in liquid medium after 6 days at 20° C., HPLC-MS/MS.

Molecules are shown by their SMILES. Read-outs that look alike come from different tables or passages of the source. Marks after values point to notes of the source that are not given here.

In general, chromatographic logP refers to a lipophilicity value derived from retention on a column. A low value points to lower lipophilicity.

For `CCOC(=O)[C@@H]1CCC(=O)N1c1cccc(Nc2ncc(Cl)c(NC3CC3)n2)c1` [Example 190, Ethyl 1-(3-{[5-chloro-4-(cyclopropylamino)pyrimidin-2-yl]amino}phenyl)-5-oxo-L-prolinate], the chromatographic logP in data set [1] stood at 1.69; in data set [2] it was 2.53; in data set [4] (pH 2.3, log P (pH 2.3)), 1.69. For the same molecule, the pest or weed control at 500 ppm in data set [3] is at least 70%.
Regarding `CCC1CC(C)C(=O)N1c1cccc(Nc2ncc(Cl)c(NC3CC3)n2)c1` (stereo not drawn) [Example 206, 1-(3-{[5-Chloro-4-(cyclopropylamino)pyrimidin-2-yl]amino}phenyl)-5-ethyl-3-methylpyrrolidin-2-one], the chromatographic logP in data set [1] turned out to be 2.19; in data set [2], 3.15; in data set [4] (pH 2.3, log P (pH 2.3)), 2.19. Besides, in data set [3], the pest or weed control at 500 ppm was at least 70%.
As for `O=C1CCC(=O)N1c1cccc(Nc2ncc(Cl)c(NC3CC3)n2)c1` [Example 195], the log p in data set [5] is 0.99[d]; in [2], 1.98[c];. In [6] (setting [10]), the “pI50 Fum” value came to 6.2.
For the molecule `O=C1OCCN1c1cccc(Nc2ncc(Cl)c(NC3CCC3)n2)c1` [Example 59, 3-(3-{[5-Chloro-4-(cyclobutylamino)pyrimidin-2-yl]amino}phenyl)-1,3-oxazolidin-2-one], the inhibition at 50 µM in [7] is over 80%. The chromatographic logP in data set [1] stood at 1.64; in [4] (pH 2.3, log P (pH 2.3)), 1.64; in data set [4] (pH 2.3, log p), 1.64. Besides, the pest or weed control at 500 ppm in [3] was at least 70%. Further, the IC50 in data set [6] (FB1 concentration in liquid medium after 6 days at 20° C., HPLC-MS/MS, read-out: pI50 Fum (converted)) was 631 nM; in [6] (OD620 at the beginning and after 6 days, read-out: pI50 growth (converted)), 2510 nM.
As for `COCC(C)Nc1nc(Nc2cccc(N3C(=O)CCC3=O)c2)ncc1Cl` (stereo not drawn) [Example 202], the log p in data set [1] was 1.26[b];; in data set [5], 1.02[d]; in data set [2] it was 2.13[c];.
With `O=C1CCC(=O)N1c1cccc(Nc2ncc(Cl)c(NC3CCC3)n2)c1` [Example 203], the log p in data set [1] was 1.48[b];; in data set [5], 1.24[d]; in data set [2], 2.32[c];.
As to `COCC(=O)N(c1cccc(N2CCCC2=O)c1)c1ncc(Cl)c(NC2CC2)n1` [Example 231, N-[5-Chloro-4-(cyclopropylamino)pyrimidin-2-yl]-2-methoxy-N-[3-(2-oxopyrrolidin-1-yl)phenyl]acetamide], the chromatographic logP in data set [1] stood at 1.87; in data set [2] it was 1.82; in [4] (pH 2.3, log P (pH 2.3)), 1.87. Moreover, in data set [3], the pest or weed control at 500 ppm was at least 70%.
As for `O=C1CCC(=O)N1c1cc(Nc2ncc(C(F)(F)F)c(NC3CC3)n2)ccc1Cl` [Example 119, 1-(2-Chloro-5-{[4-(cyclopropylamino)-5-(trifluoromethyl)pyrimidin-2-yl]amino}phenyl)pyrrolidine-2,5-dione], the chromatographic logP in data set [1] is 2.49; in data set [4] (pH 2.3, log P (pH 2.3)), 2.49. For the same molecule, the pest or weed control at 500 ppm in data set [3] is at least 70%.
On to `FC(F)(F)c1cnc(Nc2cccc(N3CCCC3=S)c2)nc1NC1CC1` [Example 214], for which the log p in data set [1] is 2.59[b]; in [2], 2.86[c];. Further, in data set [8], the efficacy is recorded as at least 80%. In addition, in data set [6] (setting [10]), the “pI50 Fum” value turned out to be 5.1. In [6] (OD620 at the beginning and after 6 days), this molecule registered a pI50 growth of 5.
With `S=C1CCCN1c1cccc(Nc2ncc(Cl)c(NC3CC3)n2)c1` [Example 33, 1-(3-{[5-Chloro-4-(cyclopropylamino)pyrimidin-2-yl]amino}phenyl)pyrrolidine-2-thione], the chromatographic logP in [2] amounted to 2.54; in [9], 2.54; in data set [4] (pH 2.3, log p), 1.69. Further, in data set [3], the pest or weed control at 500 ppm was at least 70%.
In the case of `CCC1CC(C)C(=O)N1c1cccc(Nc2ncc(Br)c(NC3CCC3)n2)c1` (stereo not drawn) [Example 211], the log p in [1] was 2.63[b];; in data set [5], 2.19[d].
For the molecule `O=CN(c1cccc(N2CCCC2=O)c1)c1ncc(Cl)c(NC2CC2)n1` [Example 217, N-[5-Chloro-4-(cyclopropylamino)pyrimidin-2-yl]-N-[3-(2-oxopyrrolidin-1-yl)phenyl]-formamide], the chromatographic logP in data set [1] came to 1.49; in data set [4] (pH 2.3, log P (pH 2.3)) it was 1.22. The pest or weed control at 500 ppm in [3] was at least 70%.
